# Laboratory results reported in ChEMBL document CHEMBL4020805, “Design, synthesis and SAR of new-di-substituted pyridopyrimidines as ATP-competitive dual PI3Kα/mTOR inhibitors” (Bioorg Med Chem Lett, 2017).
# How the values were obtained:
# physchem = details: buffer, pH 7.4
# in vitro = details: CD-1, mouse, liver microsomes
SMILES,"solubility at 1.5 h, 200 µM (physchem) [µM]",half-life at 1 µM (in vitro) [min]
O=C(Nc1ccc(-c2nc(N3CCOCC3)c3ncccc3n2)cc1)Nc1ccc(S(=O)(=O)Nc2ccccc2)cc1,< 2,16.6
O=C(Nc1ccc(CCO)cc1)Nc1ccc(-c2nc(N3CCOCC3)c3ncccc3n2)cc1,< 2,> 60
O=C(Nc1ccc(-c2nc(N3CCOCC3)c3ncccc3n2)cc1)Nc1ccc(S(=O)(=O)Nc2ccc(F)cc2F)cc1,< 2,> 60
O=C(Nc1ccc(-c2nc(N3CCOCC3)c3ncccc3n2)cc1)Nc1ccc(S(=O)(=O)Nc2ccc(F)cc2)cc1,< 2,> 60
O=C(Nc1ccc(-c2nc(N3CCOCC3)c3cccnc3n2)cc1)Nc1ccc(S(=O)(=O)Nc2ccc(F)cc2F)cc1,< 2,60
O=C(Nc1ccccc1)Nc1ccc(-c2nc(N3CCOCC3)c3ncccc3n2)cc1,< 2,22.3
Oc1cccc(-c2nc(N3CCOCC3)c3oc4ncccc4c3n2)c1 [PI-103],3.4,7.1
O=C(Nc1ccc(-c2nc(N3CCOCC3)c3cccnc3n2)cc1)Nc1cccc(CO)c1,21.8,30
O=C(Nc1ccc(-c2nc(N3CCOCC3)c3cccnc3n2)cc1)Nc1ccc(S(=O)(=O)Nc2ccc(F)cc2)cc1,4.2,59.6

# Further lines, results first:
"solubility at 1.5 h, 200 µM (physchem) [µM]",half-life at 1 µM (in vitro) [min],SMILES
11.4,> 60,CCC(=O)c1ccc(NC(=O)Nc2ccc(-c3nc(N4CCOCC4)c4cccnc4n3)cc2)cc1
< 2,> 60,O=C(Nc1ccc(C(=O)CCl)cc1)Nc1ccc(-c2nc(N3CCOCC3)c3ncccc3n2)cc1
< 2,59,CC(=O)c1ccc(NC(=O)Nc2ccc(-c3nc(N4CCOCC4)c4cccnc4n3)cc2)cc1
< 2,26.9,O=C(Nc1ccc(-c2nc(N3CCOCC3)c3cccnc3n2)cc1)Nc1ccc(S(=O)(=O)Nc2ccccc2)cc1
< 2,> 60,CCOC(=O)c1ccc(NC(=O)Nc2ccc(-c3nc(N4CCOCC4)c4cccnc4n3)cc2)cc1
